Measured values taken from patent publication US8071654B2, “Inhibitors of thromboxane formation and action” (priority 2000, dated 2011).

Target: T1, COX-2 (Homo sapiens, UniProt P35354)
T1 construct: purchased Cayman Chemicals
T1 sequence (P35354 18-604): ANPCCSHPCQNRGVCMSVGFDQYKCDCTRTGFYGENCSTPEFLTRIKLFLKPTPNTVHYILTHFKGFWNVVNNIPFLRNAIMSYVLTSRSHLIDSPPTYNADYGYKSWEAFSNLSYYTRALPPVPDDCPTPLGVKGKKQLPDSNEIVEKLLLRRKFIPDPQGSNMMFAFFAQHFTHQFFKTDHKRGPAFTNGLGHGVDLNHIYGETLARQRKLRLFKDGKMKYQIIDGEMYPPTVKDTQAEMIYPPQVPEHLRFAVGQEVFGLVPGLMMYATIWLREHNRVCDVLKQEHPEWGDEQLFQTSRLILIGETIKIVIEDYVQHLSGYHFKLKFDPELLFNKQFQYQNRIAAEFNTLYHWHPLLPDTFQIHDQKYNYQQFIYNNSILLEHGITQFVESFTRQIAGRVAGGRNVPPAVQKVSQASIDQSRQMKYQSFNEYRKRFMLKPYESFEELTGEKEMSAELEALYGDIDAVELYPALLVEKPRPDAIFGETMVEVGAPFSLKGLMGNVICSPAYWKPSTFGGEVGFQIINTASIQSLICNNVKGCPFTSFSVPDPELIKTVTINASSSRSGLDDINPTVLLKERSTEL
Test: COX-2 activity, 14C-arachidonic acid conversion, TLC
Type: biochemical
Settings: for COX-2 enzyme activity (% of control values, mean ± SD): n = 3
Protocol: COX-1 and COX-2 enzyme preparations were purchased from Cayman Chemicals. Preliminary studies established that 40 U of COX-1 or COX-2 could convert about 70% of ^14C-arachidonic acid (spec. act. 55 mCi/mmol, Ontario Isotopes, Ontario, Canada; 100,000 cpm were diluted with 0.5 μg unlabeled arachidonic acid (Cayman Chemicals)/1 ml assay) into products in vitro. Different amounts of PBT-3 (10 μg and 20 μg) were added and the conversion of AA into products was assessed during a 10 min reaction in 1 ml phosphate buffer at 37°. After extraction, products were assessed by TLC (silica gel G, ethyl acetate/acetic acid, 99/1, v/v). After development, the TLC plates were scanned for radioactive products with a Berthold TLC radiochromatogram scanner and the radioactivity was quantified by scraping zones of silica gel, placing in scintillation vials, elution with 1 ml methanol and addition of scintillation medium. Radioactivity was determined by conventional counting in a beta scintillation counter.

## CCCCC/C=C\CC1CC1[C@@H](O)/C=C\C/C=C\CCCC(=O)OC (stereo partly drawn) [PBT-3, 10(S)-hydroxy-11,12-cyclopropyl-eicosa-5Z,8Z,14Z-trienoic acid methyl ester]
PBT-3 3.00 μM
  COX-2 enzyme activity (% of control values, mean ± SD): 109.2 ± 8.0^NS % of control
PBT-3 30.0 μM
  COX-2 enzyme activity (% of control values, mean ± SD): 107.1 ± 14^NS % of control
Relatively large amounts of PBT-3, about 3-4 log doses greater than required to inhibit the TP receptor
  inhibition of COX-2, in words: Neither COX-1, COX-2,12-LOX nor Plase A2 was inhibited
